The test system of one test is leukemia l1210 cell line. The arrangement: method as in doi:10.22146/ijc.21576. The following applies: isolated from the bark of Mahkota Dewa; cited from earlier work.
The target of test [1] is T1, angiotensin-converting enzyme (ACE) (Homo sapiens, UniProt P12821). Kind of test: In-vitro ACE inhibitor activity assay (HHL substrate, hippuric acid read at 228 nm). In kind it is biochemical. The following applies: for inhibition at 1.25 µg/mL: ACE inhibition at a concentration of 1.25 μg/ml, read-out: inhibitory activity ± SD (%); for IC50: ACE inhibition, purified compounds and captopril, read-out: IC50 ± SD (μg/mL) (converted). On the procedure:
This assay was conducted on extract, fraction and three purified compounds using captopril as a positive control at the concentration of 0,01, 0,05, 0,5, 1,25 dan 6,25 mM. In a test tube, 50 μL of the solution assay was added with 50 μL of 8 mM hippuryl-histidyl-leucine (HHL) substrate solution and pre-incubated at 37 °C for 10 minutes, followed by the addition of 100 μL of the ACE, homogenization by vortex mixer, and incubation for 90 minutes at 37 °C. Further, 250 μL of 1 N HCl was added to the mixture to stop the enzymatic reaction. The hippuric acid was produced, while the enzymatic reaction was extracted by 1.5 mL ethyl acetate and later separated from the mixture by centrifugation. The mixture was then concentrated by heating at 100 °C and dispersed in 3 mL of demineralized aqueous to have its absorbance measured by spectrophotometer at 228 nm. The hippuric acid concentration was utilized to calculate the percentage of inhibition (%), and the IC50 value was then calculated using the percentage inhibition obtained. […] An inhibition kinetics test was employed to determine the inhibition mechanism of these compounds. It was performed type of Inhibition was determined by the Lineweaver-Burk method to acquire the Michaelis-Menten kinetic constant. The Michaelis-Menten kinetic constant (Km) is assessed based on the regression equation y = a + bx, in which x is the substrate concentration [S], and y is the absorbance of the sample [18].
Additionally, most chemicals originating from plants positively affect other aspects of normal metabolism. […] The activity of ACE inhibition from medicines or plant extracts can be detected using various ACE inhibitory activity assay methods. Using a substrate of hippuryl-histidyl-leucine (HHL), we used the Cushman and Cheung approach to the data from this study. The ACE will hydrolyze HHL into hippuric acid (HA). A UV-visible spectrophotometer was used to measure the HA at a wavelength of 228 nm to describe the ACE activity. […] Most ACE inhibitory plant metabolites are peptides, protein hydrolysates, phenolics, flavonoids, terpenoids, and alkaloids.

Test [2] concerns the target T1, angiotensin-converting enzyme (ACE). Kind of test: Enzyme inhibition kinetics of ACE (Lineweaver-Burk plot). The following applies: for type of inhibition kinetics: Lineweaver-Burk, HHL substrate 4, 6, 8, 10 and 12 μg/ml. In kind it is biochemical. As to the method: This assay was conducted on extract, fraction and three purified compounds using captopril as a positive control at the concentration of 0,01, 0,05, 0,5, 1,25 dan 6,25 mM. In a test tube, 50 μL of the solution assay was added with 50 μL of 8 mM hippuryl-histidyl-leucine (HHL) substrate solution and pre-incubated at 37 °C for 10 minutes, followed by the addition of 100 μL of the ACE, homogenization by vortex mixer, and incubation for 90 minutes at 37 °C. Further, 250 μL of 1 N HCl was added to the mixture to stop the enzymatic reaction. The hippuric acid was produced, while the enzymatic reaction was extracted by 1.5 mL ethyl acetate and later separated from the mixture by centrifugation. The mixture was then concentrated by heating at 100 °C and dispersed in 3 mL of demineralized aqueous to have its absorbance measured by spectrophotometer at 228 nm. The hippuric acid concentration was utilized to calculate the percentage of inhibition (%), and the IC50 value was then calculated using the percentage inhibition obtained. The IC50 value was determined as the peptide concentration in mg/mL was demanded to reduce 50% of ACE activity by regression analysis of the ACE inhibition versus ACE concentration percentage. The examination of the kinetics of enzyme inhibition was carried out at several concentrations of HHL substrates, which are 4, 6, 8, 10, and 12 μg/ml. The samples administered were compound with the lowest IC50 value. An inhibition kinetics test was employed to determine the inhibition mechanism of these compounds. It was performed type of Inhibition was determined by the Lineweaver-Burk method to acquire the Michaelis-Menten kinetic constant. The Michaelis-Menten kinetic constant (Km) is assessed based on the regression equation y = a + bx, in which x is the substrate concentration [S], and y is the absorbance of the sample [18].
Kinetic analysis of ACE inhibition was conducted by administering the Lineweaver-Burk plot (Fig. 4). […] The Lineweaver-Burk graph is generated from relationship of 1/[S] to 1/V.
The active compound with the smallest IC50 value was examined for enzyme inhibition kinetics. […] However, the Km values are different based on the calculation results of the Michaelis-Menten constant. […] Competitive inhibitors compete with the substrate for the enzyme’s active site so that the enzyme cannot produce an enzyme-substrate complex. However, when the concentration of the competitive inhibitor is greater than that of the substrate, it binds to the active binding site to form an enzyme inhibitor complex (EI), which ultimately prevents the formation of any product. In a typical enzymatic reaction, Vmax is the reaction’s maximal rate. Km, also known as the Michaelis-Menten constant, is the substrate concentration halfway between Vmax and Km. […]

This is an account of results in article PMC9940430, “Angiotensin converting enzyme (ACE) inhibitors activity from purified compounds Fructus Phaleria macrocarpa (Scheff) Boerl” (BMC Complementary Medicine and Therapies, 2023).

The structures appear in SMILES notation. In brackets after ≈: the same amount, converted by molar mass.

T1 sequence (P12821 30-1306, species assumed): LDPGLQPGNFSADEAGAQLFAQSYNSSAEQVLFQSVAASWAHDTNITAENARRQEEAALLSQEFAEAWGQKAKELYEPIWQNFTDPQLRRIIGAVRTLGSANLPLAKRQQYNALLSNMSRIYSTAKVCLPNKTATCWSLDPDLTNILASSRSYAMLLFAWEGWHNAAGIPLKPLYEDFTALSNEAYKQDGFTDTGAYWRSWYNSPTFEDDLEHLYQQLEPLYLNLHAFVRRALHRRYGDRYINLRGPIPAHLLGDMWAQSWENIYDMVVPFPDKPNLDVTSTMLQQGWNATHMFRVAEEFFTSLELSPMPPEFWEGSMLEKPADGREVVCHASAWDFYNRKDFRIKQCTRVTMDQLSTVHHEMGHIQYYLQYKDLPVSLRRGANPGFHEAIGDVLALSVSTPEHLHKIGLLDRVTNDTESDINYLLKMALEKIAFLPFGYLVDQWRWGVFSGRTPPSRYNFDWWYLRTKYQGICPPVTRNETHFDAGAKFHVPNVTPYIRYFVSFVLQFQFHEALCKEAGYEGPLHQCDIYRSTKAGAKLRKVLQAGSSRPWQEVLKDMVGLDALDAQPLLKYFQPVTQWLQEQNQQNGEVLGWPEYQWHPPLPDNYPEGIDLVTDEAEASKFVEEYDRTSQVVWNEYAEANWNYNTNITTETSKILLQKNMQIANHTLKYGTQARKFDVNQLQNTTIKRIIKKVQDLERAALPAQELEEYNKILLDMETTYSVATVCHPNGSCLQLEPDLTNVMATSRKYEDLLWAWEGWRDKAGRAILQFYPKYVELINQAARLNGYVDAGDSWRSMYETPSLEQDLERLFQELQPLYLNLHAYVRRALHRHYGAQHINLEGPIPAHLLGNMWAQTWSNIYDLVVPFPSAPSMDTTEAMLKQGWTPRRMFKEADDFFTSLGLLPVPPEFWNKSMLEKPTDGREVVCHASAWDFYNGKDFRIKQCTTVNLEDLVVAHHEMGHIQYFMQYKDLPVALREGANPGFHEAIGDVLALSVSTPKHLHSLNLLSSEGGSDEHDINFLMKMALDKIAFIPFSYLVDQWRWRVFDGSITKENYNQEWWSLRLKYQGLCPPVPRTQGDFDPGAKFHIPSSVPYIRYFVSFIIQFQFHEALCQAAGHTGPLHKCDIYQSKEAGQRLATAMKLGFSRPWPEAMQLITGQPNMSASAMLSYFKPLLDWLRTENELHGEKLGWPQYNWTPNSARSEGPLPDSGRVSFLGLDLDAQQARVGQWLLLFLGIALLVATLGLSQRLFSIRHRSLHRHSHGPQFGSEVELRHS

Regarding `COc1cc(O)c(C(=O)c2ccc(O)cc2)c(OC2OC(CO)C(O)C(O)C2O)c1` [6,4′-dihydroxy-6-methoxybenzophenone-2-O-β-D-glucopyranoside], in the test on leukemia l1210 cell line, the IC50 was 5.1 µg/mL (≈ 12.1 µM).

Turning to `COc1cc(O)c(C(=O)c2ccc(O)cc2)c(OC2OC(CO)C(O)C(O)C2O)c1` [Compound 1, 6,4′-dihydroxy-4-methoxybenzophenone-2-O-β-D-glucopyranoside], in test [1], the inhibition at 1.25 µg/mL turned out to be 77.48 ± 0.5% and the IC50 is 130 nM.

Take `COc1cc(O)cc(OC2OC(CO)C(O)C(O)C2O)c1C(=O)c1ccc(O)cc1` [Compound 2, 4,4′-dihydroxy-6-methoxybenzophenone-2-O-β-D-glucopyranoside]: in test [1], the inhibition at 1.25 µg/mL worked out at 85.17 ± 0.23% and the IC50 is 166 nM.

As for `O=c1c2cc(O)c(O)cc2oc2cc(O)c([C@@H]3O[C@H](CO)[C@@H](O)[C@H](O)[C@H]3O)c(O)c12` [Compound 3, mangiferin], the “Vmax, isolate versus without inhibitor” value in test [2] (Lineweaver-Burk plot, Fig. 4) was “almost the same”. For the same molecule, the “type of inhibition kinetics” value is recorded as “competitively inhibiting” in test [2] (listed as compound 3) and “competitive inhibition” in test [2] (listed as mangiferin). The “Km, isolate versus without inhibitor” value in test [2] (Michaelis-Menten constant, Fig. 4) was “different”. Besides, in test [1], the inhibition at 1.25 µg/mL is 86.99 ± 0.02%. The IC50 in test [1] was 59.2 nM.
